# Several values for one entry are separate records, joined by “and”; a condition that tells them apart may be missing. Equal values may be shown once.
# Target: SARS-CoV-2 Main Protease (SARS-CoV-2) (UniProt P0DTD1)
row,Compound,IC50
1,O=C(Nc1cncc2ccccc12)[C@H]1CN(S(=O)(=O)CC2CS(=O)(=O)C2)Cc2ccc(Cl)cc21 (stereo in doubt),0.0505 µM and 0.108 µM and 0.0737 µM
2,COc1cc(C)ccc1N(C(=O)c1ccco1)C(C(=O)NCCc1cccc(F)c1)c1cccnc1 (stereo not given),> 99.5 µM
3,COc1ncc(Br)cc1Nc1cc(Cl)cc(CC(=O)Nc2cncc3ccccc23)c1,0.681 µM
4,O=C(Cc1cccc(Cl)c1)Nc1cncc2c1NCCC2,38 µM
5,O=C(CCl)N1CCN(S(=O)(=O)c2ccsc2)CC1,1.63 µM
6,Cc1nc(CN2Cc3ccc(Cl)cc3C(C(=O)Nc3cncc4ccc(F)cc34)C2)cs1 (stereo not given),1.12 µM
7,O=C(CCl)Nc1nc2c(S(=O)(=O)NCCc3ccccc3)cccc2s1,5.03 µM and 14.2 µM and 37.5 µM
8,C=CC(=O)Nc1ccc(O)c(C(=O)NC[C@@H](O)c2ccc3ccccc3c2)c1 (stereo in doubt),> 99.5 µM
9,Clc1scc(CN2CCC(c3ccn[nH]3)CC2)c1Cl,> 99.5 µM
10,O=C(Cc1cc(Cl)cc(Nc2cccc(C(F)(F)F)n2)c1)Nc1cncc2ccccc12,2.13 µM
11,O=C(NCCc1cccc(F)c1)C(c1cccnc1)N(Cc1ccccc1C1CCC1)C(=O)c1ccco1 (stereo not given),1.93 µM
12,O=C(Cc1cc(Cl)cc(Nc2cnc(Br)c(Cl)n2)c1)Nc1cncc2ccccc12,1.94 µM
13,O=C(NCc1ccccc1)[C@H]1CN(C(=O)CCl)CCN1S(=O)(=O)c1ccsc1 (stereo in doubt),0.621 µM
14,O=C(NCCc1cccc(F)c1)C(c1cccnc1)N(C(=O)c1cocn1)C1CCCCC1 (stereo not given),> 99.5 µM
15,CN1CCCC(N(C(=O)c2cocn2)C(C(=O)NCCc2cccc(F)c2)c2cccnc2)C1 (stereo not given),> 99.5 µM
16,Cc1cc(N)ncc1NC(=O)Cc1cccc(Cl)c1,> 99.5 µM
17,COc1cc(Nc2cc(Cl)cc(CC(=O)Nc3cncc4ccccc34)c2)ccc1Br,1.89 µM
18,COC(=O)CCSc1cc(Cl)ccc1N(C(=O)c1ccco1)C(C(=O)NCCc1cccc(F)c1)c1cccnc1 (stereo not given),16.6 µM
19,Cc1cc(C(=O)CCl)c(C)n1CC1COc2ccccc2O1 (stereo not given),2.82 µM
20,Cc1ccncc1NC(=O)Cc1cccc(Br)c1,20.6 µM
21,N#CC1(CS(=O)(=O)N2Cc3ccc(Cl)cc3[C@@H](C(=O)Nc3cncc4ccccc34)C2)CNC1 (stereo in doubt),1.62 µM
22,O=C(Cc1cc(Cl)cc(NCc2cc(F)ccc2Br)c1)Nc1cncc2ccccc12,1.88 µM
23,O=C(Cc1cccc(Cl)c1)Nc1n[nH]c2ccc(F)cc12,> 99.5 µM
24,O=S(=O)(Nc1ccccc1SCc1cccc(Cl)c1F)c1cc(Cl)sc1Cl,2.23 µM
25,Cc1ccc(C)c(S(=O)(=O)N2CCN(C(=O)CCl)CC2)c1,14.2 µM

row,Compound,IC50
1,O=C(NCCc1cccc(F)c1)C(c1cccnc1)N(Cc1cccnc1)C(=O)c1cnc[nH]1 (stereo not given),> 99 µM
2,N#CC(C(=O)Nc1cncc2ccccc12)c1ccc(Cl)c(Cl)c1 (stereo not given),0.803 µM
3,O=C(Cc1cc(Cl)cc(NCC(c2ccccc2)c2ccccc2)c1)Nc1cncc2ccccc12,5.82 µM
4,CC1(CS(=O)(=O)N2Cc3ccc(Cl)cc3C3(CCN(c4cncc5ccccc45)C3=O)C2)CC1 (stereo not given),0.265 µM
5,O=C(CN(C(=O)Cc1cccnc1)c1ccc(-c2ncccn2)cc1)N1CCNCC1,> 99.5 µM
6,O=C(c1cc(=O)[nH]c2ccccc12)N1CCN(c2ccccc2F)CC1,24 µM
7,O=C(CC1(C(=O)Nc2cncc3ccccc23)CCOc2ccc(Cl)cc21)N1CCOCC1CC(F)F (stereo not given),7.68 µM and 12.6 µM
8,CN(C)CCOc1ccc2cncc(NC(=O)C3CN(S(=O)(=O)CC4(C#N)CC4)Cc4ccc(Cl)cc43)c2c1 (stereo not given),0.117 µM
9,COc1ccc2cncc(NC(=O)C3CCOc4cc(F)c(Cl)cc43)c2c1 (stereo not given),0.101 µM and 0.114 µM
10,CC(C)(C)c1ccc(N(C(=O)c2nnn[nH]2)C(C(=O)NCCc2cccc(F)c2)c2cccnc2)cc1 (stereo not given),> 99.5 µM
11,O=C(Cc1cc(Cl)cc(Nc2ccccc2-c2ccccc2)c1)Nc1cncc2ccccc12,1.86 µM
12,O=C(Cc1cccc(Cl)c1)Nc1cncc2[nH]ncc12,21.8 µM
13,N#Cc1ccc(N(C(=O)c2cocn2)C(C(=O)NCCc2cccc(F)c2)c2cccnc2)cc1 (stereo not given),> 99.5 µM
14,CC(C)(C)c1ccc(N(C(=O)c2ccco2)C(C(=O)NCCc2cccc(F)c2)c2cnc3ccccn23)cc1 (stereo not given),37.5 µM
15,O=C(Cc1cc(Cl)cc(N2CCC(O)(c3ccc(Cl)cc3)CC2)c1)Nc1cncc2ccccc12,5.21 µM
16,O=C(CC1(C(=O)Nc2cncc3ccccc23)CCOc2ccc(Cl)cc21)Nc1nnco1 (stereo not given),> 99.5 µM
17,O=C(NCCc1cccc(F)c1)C(c1cccnc1)N(Cc1ccccc1)C(=O)c1ccco1 (stereo not given),> 99.5 µM
18,CCC(=O)Nc1ccc(N(C)C(=O)Cn2nnc3ccccc32)cc1,> 99.5 µM
19,O=C(Cc1cc(Cl)cc(NCc2cc(Cl)cc(Cl)c2)c1)Nc1cncc2ccccc12,1.72 µM
20,COc1nc(Br)cnc1Nc1cc(Cl)cc(CC(=O)Nc2cncc3ccccc23)c1,2.05 µM
21,CNC(=O)CN1CC2(CCN(c3cncc4cc(F)ccc34)C2=O)c2cc(Cl)ccc2C1=O (stereo not given),0.426 µM
22,CN1CCN(c2cc(Cl)cc(CC(=O)Nc3cncc4ccccc34)c2)[C@H](c2ccccc2)C1 (stereo in doubt),1.81 µM
23,O=C(Nc1cncc2ccccc12)C1COc2c(Cl)cccc21 (stereo not given),4.76 µM
24,O=C(Nc1cncc2ccccc12)C1CCOc2c(OCc3cccnc3)cc(Cl)cc21 (stereo not given),24.9 µM and > 9.95 µM
25,CS(=O)(=O)c1ccc2c(NC(=O)C3CN(CC(=O)NC4CCC4)C(=O)c4ccc(Cl)cc43)cncc2c1 (stereo not given),0.252 µM
